Assay [1] addresses T1, MIF (Homo sapiens, UniProt P14174).
T1 sequence (P14174 2-115 limits assumed): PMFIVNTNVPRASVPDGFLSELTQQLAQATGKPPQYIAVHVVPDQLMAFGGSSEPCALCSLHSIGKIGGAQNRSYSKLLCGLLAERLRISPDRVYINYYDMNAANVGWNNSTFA
Briefly: MIF dopachrome tautomerase assay. It is filed as biochemical. The settings on record: for pIC50: MIF tautomerase activity, L-dopachrome methyl ester substrate; for MIF antagonist activity: D amino acid compounds compared with compounds 8-10.

In assay [2] the test system is quiescent NIH/3T3 fibroblasts. The assay can be described thus: Inhibition of MIF-dependent serum-induced proliferation of quiescent NIH/3T3 fibroblasts. Type of assay: cell-based. The settings on record: for MIF inhibitory activity (inhibition of MIF induced proliferation in quiescent NIH/3T3 cell cultures): NIH/3T3 cell proliferation assay.
The test system of assay [3] is primary murine embryonic fibroblasts. The assay can be described thus: Neutralization of rMIF rescue from serum-withdrawal apoptosis. It is filed as cell-based. Particulars: serum-free + rMIF 50 ng/ml; for neutralizing MIF-mediated protection from apoptosis (persistence of apoptosis despite rMIF): FIG. 2, test compound 1 or 10 μM, compared with anti-MIF mAb. An excerpt:
FIG. 2 compares the activity of MIF antagonist agents of the present invention (and more particularly compounds according to Formula I) to neutralize the MIF-mediated protection from apoptosis induced in cultured murine embryonic fibroblasts, which apoptotic response (cell death) is initiated by withdrawal of serum. In this assay, withdrawal of serum initiates an apoptotic response, but the cells can be rescued by addition of recombinant MIF (rMIF) to the culture medium. […] This antagonistic effect on MIF bioactivity in vitro is predictive of clinical utility of the active MIF antagonist agent.
In the illustrative experiments, cultured embryonic fibroblasts are induced to enter apoptosis (cell death) as a result of serum withdrawal. These cultures can be “rescued” by treatment with MIF. Thus, test compounds are conveniently assayed for MIF antagonist activity by reference to the activity of the compounds to neutralize the effect of added MIF in the apoptosis assay; that is, by the persistence of apoptosis (cell death) in serum-free culture conditions despite the addition of MIF. In this regard, anti-MIF antibodies are known to antagonize MIF and serve as a convenient positive control.
Briefly, primary murine embryonic fibroblasts are distributed into 6-well cell culture plates at 2×10^5 cells/well. Cells are subsequently cultured overnight under standard conditions in 10% serum-containing medium (+serum) or in serum-free medium (+serum-free) in the absence or presence of recombinant human MIF (rMIF) at 50 ng/ml. […] Cell lysates are analyzed for apoptosis by any of a variety of convenient methods, such as ELISA for fragmented DNA. Results shown are the mean+/−SD of duplicate samples and are representative of replicated experiments.

SMILES strings stand for the structures. pIC50: −log10 of the molar value. Several values for one entry are separate records, joined by “and”; a condition that tells them apart may be missing. Equal entries are not always repeated. Entries after “also recorded” stand apart in the source; their conditions may differ. Where two headings read alike, the source gives them in different places.

The term pIC50 denotes the negative decadic logarithm of the IC50, by convention in mol/L.

In the case of `COC(=O)C(Cc1ccc(O)cc1)N=Cc1cccc(O)c1O` (centres unmarked) [compound 20], in assay [1] (read-out: Inhibition IC50), the negative-log IC50 (pIC50) is less than 4.00.
For the compound `COC(=O)[C@H](Cc1ccccc1)N=Cc1ccc(O)cc1` [compound 8, L-PheME/parahydroxybenzaldehyde Schiff base], the pIC50 in assay [1] (read-out: Inhibition (IC50)) is ~4.30 and 4.30. Further, the “MIF inhibitory activity (inhibition of MIF induced proliferation in quiescent NIH/3T3 cell cultures)” value (“MIF inhibitory activity” below) in assay [2] is recorded as “Neither compound 8 (corresponding to L-PheME/parahydroxybenzaldehyde Schiff base) nor compound 10b (corresponding to D-TrpME/parahydroxybenzaldehyde Schiff base) exhibited anti-MIF biological activity”.
Turning to `COC(=O)[C@@H](Cc1c[nH]c2ccccc12)N=Cc1ccc(O)cc1` [compound 10b, D-tryptophan/para-hydroxybenzaldehyde Schiff base], the “neutralizing MIF-mediated protection from apoptosis (persistence of apoptosis despite rMIF)” value in assay [3] was “but not compound 10b (D-tryptophan/para-hydroxybenzaldehyde Schiff base), was as effective as a monoclonal anit-MIF antibody treatment at neutralizing rMIF”. The MIF antagonist activity result in assay [1] is “significantly less MIF antagonist activity”.
As to `COC(=O)[C@@H](Cc1ccccc1)N=Cc1ccc(O)cc1` [compound 8b], the MIF antagonist activity result in assay [1] was “significantly less MIF antagonist activity”.
Consider `COC(=O)C(Cc1ccc(O)cc1)N=Cc1ccccc1O` (centres unmarked) [compound 18], for which the pIC50 in assay [1] (read-out: Inhibition IC50) is less than 4.00.
On to `COC(=O)C(Cc1ccc(O)cc1)N=Cc1ccc(O)c(O)c1` (centres unmarked) [compound 21], for which the pIC50 in assay [1] (read-out: Inhibition IC50) was less than 4.00.
In the case of `COC(=O)[C@H](Cc1ccc(O)cc1)N=Cc1ccc(F)cc1` [compound 24], the pIC50 in assay [1] (read-out: Inhibition IC50) is less than 4.00.
For the compound `COC(=O)[C@H](Cc1c[nH]c2ccccc12)N=Cc1ccc(O)cc1` [compound 10], in assay [3] (10 μM), the “antagonism of the bioactivity of MIF in apoptosis assay” value was “significantly antagonizes the bioactivity of MIF”. Moreover, the “neutralizing MIF-mediated protection from apoptosis (persistence of apoptosis despite rMIF)” value in assay [3] is listed as “as effective an MIF antagonist agent as is a neutralizing anti-MIF monoclonal antibody; also recorded: as effective as a monoclonal anit-MIF antibody treatment at neutralizing rMIF; also recorded: dose-related effect”. Besides, the “suppression of serum-induced cell proliferation” value in assay [2] (FIG. 1, 10 μM, 10% serum, [3H]-thymidine incorporation, compared with anti-MIF mAb 100 μg/ml) was “as effective an MIF antagonist as a neutralizing anti-MIF monoclonal antibody”. In addition, in assay [2], the “MIF inhibitory activity” value was “exhibited MIF inhibitory activity”.
Consider `COC(=O)CN=Cc1ccc(O)cc1` [compound 1], for which the pIC50 in assay [1] (read-out: Inhibition (IC50)) was less than 4.00.
For the compound `COC(=O)[C@H](Cc1c[nH]c2ccccc12)N=Cc1ccc(F)cc1` [compound 29], the pIC50 in assay [1] (read-out: Inhibition IC50) was less than 4.00.
For the compound `COC(=O)[C@H](Cc1ccc(O)cc1)N=Cc1ccc(O)cc1` [compound 9, L-TyrME/parahydroxybenzaldehyde Schiff base], in assay [1] (read-out: Inhibition (IC50)), the pIC50 was ~5.00 and 5.00. In assay [2], the “MIF inhibitory activity” value is recorded as “exhibited MIF inhibitory activity”.

These data come from US6599938B1, “Compounds having MIF antagonist activity” (The Picower Institute of Medical Research, priority 1999, dated 2003).
